Literature values as cited in patent US20110042247A1 (priority 2009, published 2011).
Like-named read-outs stand apart in the source and are kept apart here.

Compound	Solubility (5% Tween 80 in water)	Solubility (5% dextrose in water)	Solubility (N-methylpyrrolidone)	Solubility (acetone)	Solubility (dimethylsulphoxide (DMSO))	Solubility (ethanol)	Solubility (ethanol and water (50:50))	Solubility (methyl ethyl ketone)	Solubility (normal saline)	Solubility (polyethylene glycol)	Solubility (propylene glycol)	Solubility (water)	Solubility (water saturated octanol)	Solubility (methanol)	Solubility (methanol/water (50/50))
Nc1ncn([C@@H]2O[C@H](CO)[C@@H](O)[C@H]2O)c(=O)n1 [Azacitidine, 4-amino-1-β-D-ribofuranosyl-1,3,5-triazin-2(1H)-one]	sparingly soluble	sparingly soluble	sparingly soluble	insoluble	soluble	insoluble	slightly soluble	insoluble	sparingly soluble	slightly soluble	slightly soluble	sparingly soluble	sparingly soluble	–	–
Nc1ncn([C@H]2C[C@H](O)[C@@H](CO)O2)c(=O)n1 [Decitabine, 4-amino-1-(2-deoxy-β-D-erythro-pentofuranosyl)-1,3,5-triazin-2(1H)-one]	–	–	–	–	soluble	–	slightly soluble	–	–	–	–	sparingly soluble	–	slightly soluble	slightly soluble
